Results as given in US20220323383A1, “SMALL-MOLECULAR ADJUVANTS AND IMPLEMENTATIONS THEREOF” (JAWAHARLAL NEHRU CENTRE FOR ADVANCED SCIENTIFIC RESEARCH, priority 2019, published 2022).
Structures can show the parent of a compound that is named as a salt.

Tests used:
Assay type in all cases: cell-based
E. coli R3336 [1] = test: Chequerboard combination efficacy of adjuvant with antibiotics
In short: (§1)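 Two-fold chequerboard broth microdilution of adjuvant plus antibiotic; 6 h cultures in peptone diluted to ~10^5 cfu/mL, incubated 24 h at 37 °C, 150 rpm, OD600 read. Wells matching media control define inhibitory concentrations; FIC index (FICantibiotic+FICadjuvant) and potentiation factor (MIC alone/MIC with adjuvant) calculated.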

P. aeruginosa R590 [2] = test: as above; settings: P. aeruginosa R590
In short: as §1

A. baumannii R674 = test: Individual antibacterial activity (MIC) of adjuvants; settings: Acinetobacter baumannii, R674, read-out: MIC against clinical isolates of bacteria
In short: (§2)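 Broth microdilution used 6-h peptone cultures diluted to about 10^5 cfu/mL, with two-fold serial dilutions of adjuvant alone. Plates were incubated at 37 °C with shaking at 150 rpm. MIC was taken as the lowest concentration giving OD600 equal to the media control at 24 h.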

E. coli R3336 [3] = test: as above; settings: Escherichia coli, R3336, read-out: MIC against clinical isolates of bacteria
In short: as §2

K. pneumoniae R3934 = test: as above; settings: Klebsiella pneumoniae, R3934, read-out: MIC against clinical isolates of bacteria
In short: as §2

P. aeruginosa R590 [4] = test: as above; settings: Pseudomonas aeruginosa, R590, read-out: MIC against clinical isolates of bacteria
In short: as §2

human RBCs = test: Haemolytic activity; settings: concentration at which 50% of human blood cells are lysed; 1 h at 37° C.
In short: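 Human erythrocytes (5 vol % in PBS, pH 7.4) were incubated with serially diluted compound for 1 h at 37 °C, and A540 of the supernatant was read after centrifugation. Hemolysis was scaled between untreated (0%) and Triton X-100 (100%) wells. HC50 is the concentration lysing 50% of cells.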

SMILES | FICI (E. coli R3336 [1]; antibiotic Fusidic acid) | MIC of antibiotic in presence of adjuvant (E. coli R3336 [1]; antibiotic Fusidic acid) [µg/mL] | Potentiation factor (E. coli R3336 [1]; antibiotic Fusidic acid) | MIC of antibiotic in presence of adjuvant (E. coli R3336 [1]; antibiotic Linezolid) | FICI (E. coli R3336 [1]; antibiotic Minocycline) | MIC of antibiotic in presence of adjuvant (E. coli R3336 [1]; antibiotic Minocycline) [µg/mL] | Potentiation factor (E. coli R3336 [1]; antibiotic Minocycline) | FICI (E. coli R3336 [1]; antibiotic Rifampicin) | MIC of antibiotic in presence of adjuvant (E. coli R3336 [1]; antibiotic Rifampicin) [µg/mL] | Potentiation factor (E. coli R3336 [1]; antibiotic Rifampicin) | FICI (P. aeruginosa R590 [2]; antibiotic Chloramphenicol) | MIC of antibiotic in presence of adjuvant (P. aeruginosa R590 [2]; antibiotic Chloramphenicol) [µg/mL] | Potentiation factor (P. aeruginosa R590 [2]; antibiotic Chloramphenicol) | MIC of antibiotic in presence of adjuvant (P. aeruginosa R590 [2]; antibiotic Colistin) | MIC of antibiotic in presence of adjuvant (P. aeruginosa R590 [2]; antibiotic Daptomycin) | FICI (P. aeruginosa R590 [2]; antibiotic Fusidic acid) | MIC of antibiotic in presence of adjuvant (P. aeruginosa R590 [2]; antibiotic Fusidic acid) [µg/mL] | Potentiation factor (P. aeruginosa R590 [2]; antibiotic Fusidic acid) | FICI (P. aeruginosa R590 [2]; antibiotic Linezolid) | MIC of antibiotic in presence of adjuvant (P. aeruginosa R590 [2]; antibiotic Linezolid) [µg/mL] | further results
NCCCC[C@H](N)C(=O)NCCCCCCN(CCCCCCNC(=O)[C@@H](N)CCCCN)C(=O)Cc1cccc2ccccc12 [Compound 13, N,N-bis-[(6-(^LLys)amido)hexyl] naphthyl ethanamide tetrakistrifluoroacetate] | <0.125 | 32 | >16 | No potentiation | <0.031 | 0.5 | 64 | <0.031 | 8 | 64 | 0.375 | 32 | 4 | No potentiation | No potentiation | 0.094 | 2 | 32 | 0.1875 | 32 | Potentiation factor (P. aeruginosa R590 [2]; antibiotic Linezolid): 8; FICI (P. aeruginosa R590 [2]; antibiotic Minocycline): 0.1875; MIC of antibiotic in presence of adjuvant (P. aeruginosa R590 [2]; antibiotic Minocycline): 0.5 µg/mL; Potentiation factor (P. aeruginosa R590 [2]; antibiotic Minocycline): 16; FICI (P. aeruginosa R590 [2]; antibiotic Rifampicin): <0.019; MIC of antibiotic in presence of adjuvant (P. aeruginosa R590 [2]; antibiotic Rifampicin): <0.5 µg/mL; Potentiation factor (P. aeruginosa R590 [2]; antibiotic Rifampicin): >256; FICI (P. aeruginosa R590 [2]; antibiotic Tetracycline): 0.266; MIC of antibiotic in presence of adjuvant (P. aeruginosa R590 [2]; antibiotic Tetracycline): 4 µg/mL; Potentiation factor (P. aeruginosa R590 [2]; antibiotic Tetracycline): 64; MIC (A. baumannii R674): 512 µg/mL; MIC (E. coli R3336 [3]): > 512 µg/mL; MIC (K. pneumoniae R3934): > 512 µg/mL; MIC (P. aeruginosa R590 [4]): 512 µg/mL; HC50 (human RBCs): >1024 µg/mL
NCCCC[C@H](N)C(=O)NCCCCCCN(CCCCCCNC(=O)[C@@H](N)CCCCN)C(=O)CC(c1ccccc1)c1ccccc1 [Compound 14, N,N-bis-[(6-(^LLys)amido)hexyl] 3,3-diphenyl propanamide tetrakis trifluoroacetate] | <0.0625 | 16 | >32 | No potentiation | <0.0156 | <0.25 | >128 | <0.047 | 4 | 128 | <0.3125 | 32 | 4 | 0.25 µg/mL | No potentiation | <0.012 | <0.25 | >256 | <0.156 | 32 | FICI (P. aeruginosa R590 [2]; antibiotic Colistin): <0.266; Potentiation factor (P. aeruginosa R590 [2]; antibiotic Colistin): 4; Potentiation factor (P. aeruginosa R590 [2]; antibiotic Linezolid): 8; FICI (P. aeruginosa R590 [2]; antibiotic Minocycline): <0.156; MIC of antibiotic in presence of adjuvant (P. aeruginosa R590 [2]; antibiotic Minocycline): 1 µg/mL; Potentiation factor (P. aeruginosa R590 [2]; antibiotic Minocycline): 8; FICI (P. aeruginosa R590 [2]; antibiotic Rifampicin): <0.016; MIC of antibiotic in presence of adjuvant (P. aeruginosa R590 [2]; antibiotic Rifampicin): <0.125 µg/mL; Potentiation factor (P. aeruginosa R590 [2]; antibiotic Rifampicin): >1024; FICI (P. aeruginosa R590 [2]; antibiotic Tetracycline): <0.1875; MIC of antibiotic in presence of adjuvant (P. aeruginosa R590 [2]; antibiotic Tetracycline): 16 µg/mL; Potentiation factor (P. aeruginosa R590 [2]; antibiotic Tetracycline): 16; MIC (A. baumannii R674): > 512 µg/mL; MIC (E. coli R3336 [3]): > 512 µg/mL; MIC (K. pneumoniae R3934): > 512 µg/mL; MIC (P. aeruginosa R590 [4]): > 512 µg/mL; HC50 (human RBCs): >1024 µg/mL
